Values quoted from earlier work in US20250369985A1, “METHOD FOR DETERMINING THE THERAPEUTIC REGIMEN FOR AN INDIVIDUAL AND ITS USE” (MOSAIQUES DIAGNOSTICS AND THERAPEUTICS AG, priority 2022, published 2025).
Like-named read-outs stand apart in the source and are kept apart here.

System: urinary proteins/peptides (71 biomarkers of CD71 classifier)

Measured: f (fold-change of the abundance)

Cc1ccc([C@@H]2O[C@H](CO)[C@@H](O)[C@H](O)[C@H]2O)cc1Cc1ccc(-c2ccc(F)cc2)s1 [drug C]
1.33: peptide 99911559 (Seq. ID No. 32)
1.86: peptide 99905274 (Seq. ID No. 11) | peptide 99913322 (Seq. ID No. 40)
1.55: peptide 99914935 (Seq. ID No. 47)
1.84: peptide 99907807 (Seq. ID No. 18)
0.63: peptide 99917690 (Seq. ID No. 65)
2.01: peptide 99917825 (Seq. ID No. 66)
0.83: peptide 99916615 (Seq. ID No. 55)
1: peptide 99900220 (Seq. ID No. 1) | peptide 99900467 (Seq. ID No. 2) | peptide 99901399 (Seq. ID No. 3) | peptide 99902592 (Seq. ID No. 4) | peptide 99903025 (Seq. ID No. 5) | peptide 99904666 (Seq. ID No. 7) | peptide 99904862 (Seq. ID No. 8) | peptide 99905044 (Seq. ID No. 9) | peptide 99905259 (Seq. ID No. 10) | peptide 99905379 (Seq. ID No. 12) | peptide 99905423 (Seq. ID No. 13) | peptide 99905509 (Seq. ID No. 14) | peptide 99905551 (Seq. ID No. 15) | peptide 99906176 (Seq. ID No. 16) | peptide 99907275 (Seq. ID No. 17) | peptide 99908755 (Seq. ID No. 19) | peptide 99908795 (Seq. ID No. 20) | peptide 99908916 (Seq. ID No. 21) | peptide 99909059 (Seq. ID No. 22) | peptide 99910002 (Seq. ID No. 23) | peptide 99910032 (Seq. ID No. 24) | peptide 99910407 (Seq. ID No. 25) | peptide 99910483 (Seq. ID No. 26) | peptide 99910554 (Seq. ID No. 27) | peptide 99911002 (Seq. ID No. 29) | peptide 99911193 (Seq. ID No. 30) | peptide 99911415 (Seq. ID No. 31) | peptide 99911777 (Seq. ID No. 33) | peptide 99912101 (Seq. ID No. 34) | peptide 99912211 (Seq. ID No. 35) | peptide 99912366 (Seq. ID No. 36) | peptide 99912411 (Seq. ID No. 37) | peptide 99912661 (Seq. ID No. 38) | peptide 99913200 (Seq. ID No. 39) | peptide 99913825 (Seq. ID No. 41) | peptide 99914211 (Seq. ID No. 42) | peptide 99914876 (Seq. ID No. 44) | peptide 99914887 (Seq. ID No. 45) | peptide 99914893 (Seq. ID No. 46) | peptide 99915015 (Seq. ID No. 48) | peptide 99915755 (Seq. ID No. 49) | peptide 99915778 (Seq. ID No. 50) | peptide 99915883 (Seq. ID No. 51) | peptide 99916170 (Seq. ID No. 52) | peptide 99916177 (Seq. ID No. 53) | peptide 99916966 (Seq. ID No. 56) | peptide 99917047 (Seq. ID No. 57) | peptide 99917221 (Seq. ID No. 58) | peptide 99917280 (Seq. ID No. 59) | peptide 99917288 (Seq. ID No. 60) | peptide 99917419 (Seq. ID No. 61) | peptide 99917505 (Seq. ID No. 62) | peptide 99917596 (Seq. ID No. 63) | peptide 99917626 (Seq. ID No. 64) | peptide 99917890 (Seq. ID No. 67) | peptide 99917947 (Seq. ID No. 68) | peptide 99918831 (Seq. ID No. 69) | peptide 99918906 (Seq. ID No. 70) | peptide 99918909 (Seq. ID No. 71)
0.79: peptide 99916611 (Seq. ID No. 54)
1.22: peptide 99904405 (Seq. ID No. 6)
0.64: peptide 99914445 (Seq. ID No. 43)
1.71: peptide 99910883 (Seq. ID No. 28)
